Measured values published in patent publication US10233328B2, “Sol-gel based matrix” (KØBENHAVNS UNIVERSITET, priority 2013, dated 2019).

Experiments:
[1] = pH titration of sensor spots (pKa of the sensor); format: physicochemical; conditions: dye in ETEOS-GPTMS matrix, Table 2
Method: To perform titrations rapidly a set-up employing an epi-fluorescence microscopy equipped with a halogen light source and an Ocean Optics spectrometer for detection. The sensor spot was attached to a homemade holder, which kept the spot in place in a large chamber filled with water, where pH was externally monitored with a pH meter. Alternatively the sensor spot was affixed on the wall of a cuvette and the titration was performed in a Perkin Elmer LS50B, controlling the pH between measurements.
The performance of the sensors is shown as titration curves in FIG. 4. It is clear that a pH-dependent sensor action is achieved for these two sensor systems.

[2] = Leakage of dye from ETEOS-GPTMS matrix into surrounding PBS (physical stability); format: physicochemical; conditions: for Leaking: fluorescence Intensity (a.u.): PBS pH 7.0 surrounding coated glass slide
Method: The photostability was followed by constant illumination of the sensor spot with wavelength selected light from a xenon lamp. The physical stability was tested by immersing the sensor spot in low or high pH aqueous solution, and monitoring the fluorescence from the solution.
Table 2. Leaking of 5(6)-carboxyfluorescein (CF), DMQA-2, DAOTA-1, and 6-stearamido-fluorescein (AF18) from the ETEOS-GPTMS matrix given as fluorescence intensity measured from a PBS solution at pH 7 surrounding a glass slide coated with ETEOS-GPTMS-dye matrix using maximum sized slit widths at the emission and excitation sites of the spectrometer.
All the leakage data is compiled in table 2.

5(6)-carboxyfluorescein [CF]
pKa [1]: 6.5 | Leakage from ETEOS-GPTMS matrix (in words) ([2]; PBS pH 7.0): extensive leakage | Leaking: fluorescence Intensity (a.u.) ([2]; leaking period 2 h, half the slit widths used for DMQA-2 and DAOTA-1): >>800 a.u.

CCCCCCCCCCCCCCCCCC(=O)Nc1ccc2c(c1)C1(OC2=O)c2ccc(O)cc2Oc2cc(O)ccc21 [AFC18, 6-stearamido-fluorescein]
pKa [1]: 6.5 | Leaking: fluorescence Intensity (a.u.) ([2]; leaking period 4 d): 100 a.u.
